Assays:
[1] = molecular target: T1, Beta-galactoside alpha-2,6-sialyltransferase 1 (Rattus norvegicus, UniProt P13721); experiment: Inhibitory activity evaluated against alpha-2,6-sialyltransferase from rat liver
T1 sequence (P13721 whole entry): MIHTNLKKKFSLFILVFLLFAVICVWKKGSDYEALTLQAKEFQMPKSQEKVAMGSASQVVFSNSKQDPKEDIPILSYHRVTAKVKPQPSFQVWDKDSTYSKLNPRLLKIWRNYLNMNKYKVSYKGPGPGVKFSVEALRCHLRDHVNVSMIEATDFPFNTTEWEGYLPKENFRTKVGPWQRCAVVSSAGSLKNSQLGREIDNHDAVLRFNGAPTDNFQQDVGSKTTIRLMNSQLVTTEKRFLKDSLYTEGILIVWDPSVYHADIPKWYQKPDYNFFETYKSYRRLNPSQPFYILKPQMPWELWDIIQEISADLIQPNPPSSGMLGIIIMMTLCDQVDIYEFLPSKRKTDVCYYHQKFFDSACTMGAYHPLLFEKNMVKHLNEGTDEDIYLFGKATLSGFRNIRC

[2] = molecular target: T2, CMP-N-acetylneuraminate-beta-1,4-galactoside alpha-2,3-sialyltransferase (Rattus norvegicus, UniProt Q02734); experiment: Inhibitory activity evaluated against alpha-2,3-sialyltransferase from rat liver
T2 sequence (Q02734 whole entry): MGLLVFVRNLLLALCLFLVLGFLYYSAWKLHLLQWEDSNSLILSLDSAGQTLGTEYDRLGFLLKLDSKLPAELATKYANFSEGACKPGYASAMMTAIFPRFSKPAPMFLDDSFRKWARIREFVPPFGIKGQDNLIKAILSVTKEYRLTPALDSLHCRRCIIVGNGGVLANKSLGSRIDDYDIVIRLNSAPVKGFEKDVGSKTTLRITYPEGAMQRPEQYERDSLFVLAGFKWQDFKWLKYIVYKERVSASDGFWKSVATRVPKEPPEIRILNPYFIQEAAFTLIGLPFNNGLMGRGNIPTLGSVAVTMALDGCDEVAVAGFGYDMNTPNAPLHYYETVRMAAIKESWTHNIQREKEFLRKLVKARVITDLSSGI

Compound | Ki [1] [µM] | Ki [2] [µM]
Nc1ccn([C@@H]2O[C@H](COP(=O)(O)O)[C@@H](O)[C@H]2O)c(=O)n1 | 64 | 65
Nc1ccn(C2O[C@H](COP(=O)(O)OCC(=O)O)C(O)[C@H]2O)c(=O)n1 (single isomer, unassigned) | 370 | 710
Nc1ccn(C2O[C@H](COP(=O)(O)N[C@@H](Cc3c[nH]c4ccccc34)C(=O)O)C(O)[C@H]2O)c(=O)n1 (single isomer, unassigned) | 730 | 300
Nc1ccn(C2O[C@H](COP(=O)(O)N[C@@H](Cc3ccccc3)C(=O)O)C(O)[C@H]2O)c(=O)n1 (single isomer, unassigned) | 3800 | 2300

Other lines, results leading:

Ki [1] [µM] | Ki [2] [µM] | Compound
2400 | 5300 | Nc1ccn(C2O[C@H](COP(=O)(O)NCC(=O)O)C(O)[C@H]2O)c(=O)n1 (single isomer, unassigned)
2200 | 5100 | Nc1ccn(C2O[C@H](COP(=O)(O)N[C@@H](CC(=O)O)C(=O)O)C(O)[C@H]2O)c(=O)n1 (single isomer, unassigned)
2500 | 900 | CC(C)C[C@H](NP(=O)(O)OC[C@H]1OC(n2ccc(N)nc2=O)[C@H](O)C1O)C(=O)O (single isomer, unassigned)
1700 | 2300 | C[C@H](NP(=O)(O)OC[C@H]1OC(n2ccc(N)nc2=O)[C@H](O)C1O)C(=O)O (single isomer, unassigned)

Source: ChEMBL document CHEMBL1146629, “Synthesis and evaluation of phosphoramidate amino acid-based inhibitors of sialyltransferases” (Bioorg Med Chem Lett, 2003)
